Reference: ChEMBL document CHEMBL1201862, “PubChem BioAssay data set” (2004)
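Five compound concentrations were applied to cells in 96-well plates for 48 hours; endpoints were derived by simple linear interpolation of the resulting dose-response curve. GI50: concentration for 50% inhibition of growth.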 The source made the active and inactive calls. Cut-off read from the data, not from the text of the source: active = GI50 up to about 1.1 µM and inactive = higher.

Experiments:
Assay in all cases: NCI tumour cell line growth inhibition, 48 h
SNB-75 = tested on: SNB-75
UACC-62 = tested on: UACC-62
Malme-3M = tested on: Malme-3M
MOLT-4 = tested on: MOLT-4
SNB-19 = tested on: SNB-19
EKVX = tested on: EKVX
786-0 = tested on: 786-0
IGROV-1 = tested on: IGROV-1
SF-539 = tested on: SF-539
HCC 2998 = tested on: HCC 2998
M14 = tested on: M14
SN12C = tested on: SN12C
HL-60 = tested on: HL-60
COLO 205 = tested on: COLO 205
A549 = tested on: A549
OVCAR-4 = tested on: OVCAR-4
OVCAR-5 = tested on: OVCAR-5
K562 = tested on: K562
HT-29 = tested on: HT-29

Measured: GI50

O=C1CSc2ccnc(=O)n21
inactive: SNB-75 93.5 µM | UACC-62 > 100 µM | Malme-3M > 100 µM | MOLT-4 > 100 µM | SNB-19 > 100 µM | EKVX > 100 µM | 786-0 > 100 µM | IGROV-1 > 100 µM | SF-539 > 100 µM | HCC 2998 > 100 µM | M14 > 100 µM | SN12C > 100 µM | HL-60 > 100 µM | COLO 205 > 100 µM | A549 > 100 µM | OVCAR-4 > 100 µM | OVCAR-5 > 100 µM

COC(OC)c1cccc2c1C(=O)CCC1(CC2)OCCCCO1
inactive: SNB-75 > 100 µM | UACC-62 > 100 µM | Malme-3M > 100 µM | MOLT-4 > 100 µM | SNB-19 > 100 µM | 786-0 > 100 µM | IGROV-1 > 100 µM | SF-539 > 100 µM | HCC 2998 > 100 µM | M14 > 100 µM | K562 > 100 µM | HT-29 > 100 µM | SN12C > 100 µM | HL-60 > 100 µM | COLO 205 > 100 µM | A549 > 100 µM | OVCAR-4 > 100 µM | OVCAR-5 > 100 µM

COc1ccc2c(c1)CC[C@@H]1[C@@H]2CC[C@]2(C)C(=O)/C(=C/c3ccc(OC)c(OC)c3)C[C@@H]12
inactive: SNB-75 > 100 µM | UACC-62 > 100 µM | Malme-3M > 100 µM | MOLT-4 > 100 µM | SNB-19 > 100 µM | EKVX > 100 µM | 786-0 > 100 µM | SF-539 > 100 µM | HCC 2998 > 100 µM | M14 > 100 µM | HL-60 > 100 µM | A549 > 100 µM | OVCAR-4 > 100 µM | OVCAR-5 > 100 µM

CN(C)CC1CCCC/C1=N\OC(=O)c1ccccc1 (configuration not stated)
inactive: SNB-75 > 100 µM | UACC-62 > 100 µM | Malme-3M > 100 µM | MOLT-4 > 100 µM | EKVX > 100 µM | 786-0 > 100 µM | IGROV-1 > 100 µM | SF-539 > 100 µM | HCC 2998 > 100 µM | M14 > 100 µM | K562 > 100 µM | HT-29 > 100 µM | SN12C > 100 µM | HL-60 > 100 µM | COLO 205 > 100 µM | A549 > 100 µM | OVCAR-4 > 100 µM | OVCAR-5 > 100 µM
